What was measured:
MR1 = biological target: T1, MR1 (Homo sapiens, UniProt Q95460); test: Refolding of denatured MR1 and β2m with ligands; type: binding; settings: substance added to MR1/β2m refold
T1 construct: soluble human MR1 (residues 1-270 of the mature, leaderless protein); made in house
Protocol: Genes encoding soluble human MR1 (residues 1-270 of the mature, leaderless protein, lacking the transmembrane and cytoplasmic domains); or human β2m (mature, leaderless protein) were expressed for four hours in BL21 E. coli following induction with 1 mM isopropyl β-D-1-thiogalactopyranoside. E. coli were pelleted and resuspended in a buffer containing 50 mM Tris, 25% (w/v) sucrose, 1 mM EDTA, 10 mM DTT pH 8.0. Inclusion body protein was then extracted by lysis of bacteria in a buffer containing 50 mM Tris pH 8.0, 1% (w/v) Triton X-100, 1% (w/v) sodium deoxycholate, 100 mM NaCl, 10 mM DTT, 5 mM MgCl2, and 1 mg DnaseI per liter of starting culture; and subsequent steps involved homogenization with a polytron homogenizer, centrifugation, and washing inclusion body protein sequentially with firstly a buffer containing 50 mM Tris pH 8, […], 100 mM NaCl, 1 mM EDTA, 1 mM DTT, and secondly a buffer containing 50 mM Tris pH 8.0, 1 mM EDTA, 1 mM DTT. Inclusion body protein was then resuspended in a buffer containing 20 mM Tris pH 8.0, 8 M urea, 0.5 mM EDTA, 1 mM DTT, and following centrifugation the supernatant containing solubilized, denatured inclusion body protein was collected and stored at −80° C.
2 mg of 6-formyl pterin, 56 mg of denatured inclusion body MR1 protein, and 28 mg of β2m protein were added to a 400 ml refold buffer solution containing 0.1 M Tris pH 8.5, 2 mM EDTA, 0.4 M arginine, 0.5 mM oxidized glutathione, 5 mM reduced glutathione. Variably, 5M urea was either present or absent. Following an overnight incubation at 4° C., the refold buffer was dialysed against 3 changes of buffer containing 10 mM Tris, pH8.0 over a period of 24 hours. Refolded MR1-β2m-ligand complex was then purified by sequential DEAE (GE Healthcare) anion exchange, S75 16/60 (GE Healthcare) gel filtration, and MonoQ (GE Healthcare) anion exchange chromatography.

Jurkat.MAIT cells = test: Activation of Jurkat.MAIT cells (CD69) with C1R antigen presenting cells expressing MR1; type: cell-based, human
Protocol: Jurkat cells transduced with a MAIT TCR comprising the TRAV1-2+TRAJ33 invariant α chain, and a TRBV6-1 β chain were tested for activation by addition of Salmonella supernatant to C1R antigen presenting cells expressing MR1 for 16 hours. Jurkat.MAIT cells were subsequently stained with PE-conjugated anti-CD3, and APC-conjugated anti-CD69 antibodies before analysis by flow cytometry. Activation of Jurkat.MAIT cells was measured by an increase in surface CD69 expression. Compounds to be tested for the ability to activate Jurkat.MAIT cells were tested alongside Salmonella supernatant.
A biological assay for the activation of MAIT T cell receptor (TCR)-expressing T cell lines (into which genes encoding the MAIT TCR alpha and beta chains had been introduced), by antigen presenting cells (expressing MR1 on the cell surface) infected with the bacterium Salmonella typhimurium has been established. This assay measures the increase in expression of the cell surface activation marker, CD69, upon activation of MAIT T cells.

Jurkat.LC13 line = test: Activation of control Jurkat.LC13 line in the presence of C1R.HLA-B8 cells; type: cell-based, human
From the text: Next, to formally establish whether 7-hydroxy-6-methyl-8-ribityl lumazine and/or its precursor, 6,7-dimethyl-8-ribityl lumazine, could activate MAIT cells, both compounds were chemically synthesized their ability to enable MR1 refolding and to activate Jurkat.MAIT cells and human MAIT cells from peripheral blood tested. […] Thus, direct precursors of riboflavin biosynthesis activate MAIT cells.

[1] = Stability of synthesised MR1 Ags; type: physicochemical
From the text: Compounds 6,7-dimethyl-8-D-ribityllumazine (1), 7-hydroxy-6-methyl-8-D-ribityllumazine (2) and a 2 electron reduced form (3) of 6-hydroxymethyl-8-D-ribityllumazine were synthesised by modifications (FIG. 64) to reported literature procedures (for review see Plaut et al 1974). Their purities were established using proton NMR spectra and reversed phase HPLC traces. In brief, D-ribitylamine (6) was produced in 55% yield from D-(−)-ribose via its oxime intermediate. Condensation with 4-chlorouracil (7) followed by nitrosation provided the key intermediate (9) in reasonable yield (27%). The diaminouracil (10) was unstable, and therefore it was generated in situ, immediately before use, by reduction of the nitroso group with sodium hydrosulfite. Condensation with the corresponding α,β-dicarbonyl reagents at the optimal pH under a nitrogen atmosphere in the dark gave the products 1 and 2 after purification by preparative HPLC. […] For dimethyl analogue 1, three equivalents of 2,3-butadione gave a much purer crude product than reported in the literature, in which 6.6 equivalents gave a significant amount of bis-adduct and made purification difficult. […] Thus prolonged reaction and work-up procedures were best avoided. In contrast, a large excess of sodium pyruvate (9-18 eq) was key for efficient production of the 7-hydroxy analogue. […]

T1 sequence (Q95460 23-292): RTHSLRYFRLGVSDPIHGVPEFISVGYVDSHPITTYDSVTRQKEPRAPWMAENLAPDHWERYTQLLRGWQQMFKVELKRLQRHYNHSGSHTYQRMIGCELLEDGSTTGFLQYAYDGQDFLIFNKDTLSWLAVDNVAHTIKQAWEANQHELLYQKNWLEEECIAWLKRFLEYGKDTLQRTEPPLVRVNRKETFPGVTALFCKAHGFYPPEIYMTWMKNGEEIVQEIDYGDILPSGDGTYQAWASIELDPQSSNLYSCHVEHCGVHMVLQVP
T1 sequence (P61769 21-119 partner): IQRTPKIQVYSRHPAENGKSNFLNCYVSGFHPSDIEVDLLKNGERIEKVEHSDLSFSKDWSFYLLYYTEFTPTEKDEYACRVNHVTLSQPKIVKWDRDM

Cc1nc2c(=O)[nH]c(=O)nc-2n(C[C@H](O)[C@H](O)[C@H](O)CO)c1C [Compound 1, 6,7-dimethyl-8-D-ribityllumazine]
Ability to refold MR1 into native MR1-β2m complex (MR1): could be refolded with MR1
Activation of Jurkat.MAIT cells (increase in surface CD69) (Jurkat.MAIT cells): activated
Activation of control Jurkat.LC13 line (Jurkat.LC13 line): failed to activate
Stability [1]: unstable, particularly in solution

Source: patent US10011602B2, “Immunological reagents and uses therefor” (THE UNIVERSITY OF MELBOURNE, priority 2012, dated 2018)
